In the assay the test system is complete Freund's adjuvant (CFA)-induced chronic arthritis. Nature of the assay: CFA-induced chronic arthritis in rats, vocalization test (Example 7). It is filed as in vivo, rat. An excerpt: The analgesic effects of anti-NGF antibody, 911 (see Hongo et al., Hybridoma 19(3):215-227 (2000)) in complete Freund's adjuvant (CFA)-induced chronic arthritis in rats were investigated using the vocalization test, in comparison with indomethacine used as reference substance.
Fifty (50) male Lewis rats (LEWIS LEW/Crl Ico) (Charles River Belgium) weighing 150 g to 220 g at the beginning of the experimental phase were included in this study. […]
On day 0 (D0), arthritis was induced in rats by intradermal injection into the tail of 0.05 ml of a Mycobacterium butyricum (Difco, USA) suspension in mineral oil (10 mg/ml). On day 14 (D14), arthritic rats were included in the study according to their ability to vocalize upon gentle flexion of the hindpaw and by their arthritis index, evaluated using an inflammation score for each hind and forepaw (see Kuzuna et al., Chem. Pharm. Bull. (Tokyo) 23:1184-1191 (1975); Pearson et al., Arthritis Rheum. 2:440-459 (1959)). Animals were scored based on the following criteria: Score 0: normal aspect; Score 1: erythema; Score 2: erythema with slight edema; Score 3: strong inflammation without ankylosis; Score 4: ankylosis. […]
Four groups of 10 rats each were included in the study. […] On day 18 (D18), the nociceptive intensity was evaluated by gentle flexion of the hindpaw and the intensity of the level of vocalization was recorded for each animal. […]

Regarding `COc1ccc2c(c1)c(CC(=O)O)c(C)n2C(=O)c1ccc(Cl)cc1` [Indomethacin, reference compound], under “10 mg/kg orally at D18, measured one hour after dosing”, the Nociceptive intensity was found to be 145.8 ± 29.9 mV. The “% variation of nociceptive intensity vs vehicle-treated group” value (10 mg/kg orally at D18, one hour after dosing) is −85%.

The values are drawn from US20080182978A1, “ANTI-NGF ANTIBODIES AND METHODS USING SAME” (RINAT NEUROSCIENCE CORP, priority 2002, published 2008).
